Assay results: US20170334899A1, “AMINO-SUBSTITUTED ISOTHIAZOLES” (Bayer Pharma Aktiengesellschaft, priority 2014, published 2017)
pIC50: −log10 of the molar value.

Tests used:
[1] = target: T1, catalytic domain of human Bub1 (amino acids 704-1085) (Homo sapiens, UniProt O43683); experiment: Bub1 kinase assay (TR-FRET); format: biochemical; conditions: 10 μM ATP, avg, read-out: Bub1 avg (IC50 [mol/l])
T1 construct: catalytic domain of human Bub1 (amino acids 704-1085); His6 (N); made in house; host or cells: insect cells (Hi5)
Outline: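 Readout is the 665/620 nm TR-FRET ratio from anti-phosphoserine antibody, Eu-labelled anti-mouse IgG and streptavidin-XL665, scaled between no-enzyme and uninhibited controls. Reaction: 1 μM biotinylated peptide, 10 μM ATP, 60 min, 22 °C, after 15 min compound preincubation with His6-Bub1 (704-1085, insect-expressed, ~200 ng/ml).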

HeLa = experiment: Proliferation assay (crystal violet), HeLa; format: cell-based; conditions: Homo sapiens, HeLa, 96 h, HeLa cells; 4 days incubation; crystal violet staining; read-out: IC50 inhibition of proliferation, HeLa
Outline: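 Crystal violet proliferation readout, 4-day compound incubation, 0.001–10 μM, final DMSO 0.5%. Zero-point plate stained at time of dosing set as 0%, untreated control as 100%; IC50 via 4-parameter fit.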

T1 sequence (O43683 704-1085): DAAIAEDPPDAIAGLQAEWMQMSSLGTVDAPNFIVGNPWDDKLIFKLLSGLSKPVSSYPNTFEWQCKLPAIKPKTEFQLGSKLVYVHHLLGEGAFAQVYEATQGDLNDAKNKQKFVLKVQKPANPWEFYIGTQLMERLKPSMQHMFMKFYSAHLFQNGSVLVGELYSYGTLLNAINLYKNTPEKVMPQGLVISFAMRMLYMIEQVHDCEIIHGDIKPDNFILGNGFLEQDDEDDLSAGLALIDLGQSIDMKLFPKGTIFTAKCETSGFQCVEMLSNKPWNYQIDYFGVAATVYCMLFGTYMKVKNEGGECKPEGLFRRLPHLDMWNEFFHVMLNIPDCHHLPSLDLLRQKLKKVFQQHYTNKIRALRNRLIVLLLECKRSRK

pIC50 [1]	pIC50 (HeLa)	Compound
< 4.70	6.48	Cc1nsc(Nc2cnc(C(F)(F)F)cn2)c1C(=O)Nc1ccc(OCCN2CCC(F)(F)CC2)nc1 [Example 407, N-{6-[2-(4,4-Difluoropiperidin-1-yl)ethoxy]pyridin-3-yl}-3-methyl-5-{[5-(trifluoromethyl)pyrazin-2-yl]amino}-1,2-thiazole-4-carboxamide]
≤ 4.70	5.00	Cc1nsc(Nc2cnccn2)c1C(=O)Nc1ccc(OCCCNC(=O)OC(C)(C)C)nc1 [Example 47, tert-Butyl (3-{[5-({[3-methyl-5-(pyrazin-2-ylamino)-1,2-thiazol-4-yl]carbonyl}-amino)pyridin-2-yl]oxy}propyl)carbamate]
< 4.70	6.80	CCN1CCC(Oc2ccc(NC(=O)c3c(C)nsc3Nc3cnc(C(F)(F)F)cn3)cn2)C(F)(F)C1 (stereo not shown) [Example 406, N-{6-[(1-Ethyl-3,3-difluoropiperidin-4-yl)oxy]pyridin-3-yl}-3-methyl-5-{[5-(trifluoromethyl)pyrazin-2-yl]amino}-1,2-thiazole-4-carboxamide]
≤ 4.70	6.25	Cc1nsc(Nc2cnc(C(F)(F)F)cn2)c1C(=O)Nc1ccc(OC2CCN(C(=O)OC(C)(C)C)CC2)nc1 [Example 5, tert-Butyl 4-[(5-{[(3-methyl-5-{[5-(trifluoromethyl)pyrazin-2-yl]amino}-1,2-thiazol-4-yl)carbonyl]amino}pyridin-2-yl)oxy]piperidine-1-carboxylate]
< 4.70	6.60	Cc1nsc(Nc2cnc(C(F)(F)F)cn2)c1C(=O)Nc1ccc(F)c(O[C@H]2CCN(CC(F)(F)F)C2)c1 [Example 416, N-(4-Fluoro-3-{[(35)-1-(2,2,2-trifluoroethyl)pyrrolidin-3-yl]oxy}phenyl)-3-methyl-5-{[5-(trifluoromethyl)pyrazin-2-yl]amino}-1,2-thiazole-4-carboxamide]
< 4.70	6.28	CCN1CC[C@H](Oc2ccc(NC(=O)c3c(C)nsc3Nc3cnc(C(F)(F)F)cn3)cn2)[C@H](F)C1 [Example 424, N-(6-{[(3R,4S)-1-Ethyl-3-fluoropiperidin-4-yl]oxy}pyridin-3-yl)-3-methyl-5-{[5-(trifluoromethyl)pyrazin-2-yl]amino}-1,2-thiazole-4-carboxamide]
≤ 4.70	5.72	COC(=O)c1cccc(NC(=O)c2c(C)nsc2Nc2cnc3ccccc3n2)c1 [Example 50, Methyl 3-({[3-methyl-5-(quinoxalin-2-ylamino)-1,2-thiazol-4-yl]carbonyl}amino)-benzoate]
< 4.70	< 5.00	Cc1nsc(Nc2cnc(C(F)(F)F)cn2)c1C(=O)Nc1ccc(OC2CCNCC2)c(F)c1 [Example 431, N-[3-Fluoro-4-(piperidin-4-yloxy)phenyl]-3-methyl-5-{[5-(trifluoromethyl)pyrazin-2-yl]amino}-1,2-thiazole-4-carboxamide]
< 4.70	< 5.00	CC(=O)Nc1ccc(NC(=O)c2c(C)nsc2Nc2ccc(C#N)cn2)cn1 [Example 435, N-(6-Acetamidopyridin-3-yl)-5-[(5-cyanopyridin-2-yl)amino]-3-methyl-1,2-thiazole-4-carboxamide]
< 4.70	6.60	Cc1nsc(Nc2cnc(C(F)(F)F)cn2)c1C(=O)Nc1ccc(OC[C@H]2CCN(CC(F)(F)F)C2)nc1 [Example 404, 3-Methyl-N-(6-{[(3S)-1-(2,2,2-trifluoroethyl)pyrrolidin-3-yl]methoxy}pyridin-3-yl)-5-{[5-(trifluoromethyl)pyrazin-2-yl]amino}-1,2-thiazole-4-carboxamide]
< 4.70	6.59	Cc1nsc(Nc2cnc(C(F)(F)F)cn2)c1C(=O)Nc1ccc(OCCN(C)C(=O)OC(C)(C)C)nc1 [Example 429, tert-Butyl methyl{2-[(5-{[(3-methyl-5-{[5-(trifluoromethyl)pyrazin-2-yl]amino}-1,2-thiazol-4-yl)carbonyl]amino}pyridin-2-yl)oxy]ethyl}carbannate]
